Source: the NIST ThermoML archive (doi:10.1021/je900733j)

Key:
[1] = xn = mol fraction of the nth substance listed; conditions: 101 kPa, Liquid
[2] = 101 kPa, Liquid

CO [methanol] + CCCCn1cc[n+](C)c1.[Cl-]
[1], x2 = 0
Conditions | mass density [kg/m3]
293.15 K | 791.3
298.15 K | 786.58
303.15 K | 781.86
308.15 K | 777.11
313.15 K | 772.33
318.15 K | 767.52

CN(C)C=O [dimethylformamide]
[2]
Conditions | mass density [kg/m3]
293.15 K | 948.63
298.15 K | 943.86
303.15 K | 939.08
308.15 K | 934.29
313.15 K | 929.48
318.15 K | 924.68

CCCCn1cc[n+](C)c1.[Cl-] [1-butyl-3-methylimidazolium chloride] + CC#N
mass density [kg/m3], [1]
Conditions | x1 = 0.0303 | x1 = 0.0797 | x1 = 0.1308 | x1 = 0.1806 | x1 = 0.235 | x1 = 0.2914 | x1 = 0.3717 | x1 = 0.439
293.15 K | 815.47 | 859.07 | 894.46 | 922.76 | 948.31 | 970.09 | 995.09 | 1012.49
298.15 K | 810.4 | 854.38 | 890.07 | 918.62 | 944.36 | 966.32 | 991.52 | 1009.08
303.15 K | 805.29 | 849.67 | 885.68 | 914.46 | 940.39 | 962.55 | 987.95 | 1005.66
308.15 K | 800.18 | 844.95 | 881.27 | 910.3 | 936.47 | 958.78 | 984.38 | 1002.25
313.15 K | 795.05 | 840.21 | 876.86 | 906.14 | 932.51 | 955.02 | 980.83 | 998.86
318.15 K | 789.88 | 835.48 | 872.45 | 901.98 | 928.57 | 951.26 | 977.28 | 995.46

CN(C)C=O [dimethylformamide] + CCCCn1cc[n+](C)c1.[Cl-]
[1], x2 = 0
Conditions | mass density [kg/m3]
293.15 K | 948.63
298.15 K | 943.86
303.15 K | 939.08
308.15 K | 934.29
313.15 K | 929.48
318.15 K | 924.68

CCCCn1cc[n+](C)c1.[Cl-] [1-butyl-3-methylimidazolium chloride] + O
mass density [kg/m3], [1]
Conditions | x1 = 0.0121 | x1 = 0.0381 | x1 = 0.0819 | x1 = 0.1109 | x1 = 0.1399 | x1 = 0.2489 | x1 = 0.2977 | x1 = 0.4083
293.15 K | 1007.06 | 1024.73 | 1046.21 | 1055.73 | 1062.54 | 1076.98 | 1080.14 | 1084.32
298.15 K | 1005.53 | 1022.46 | 1043.25 | 1052.62 | 1059.39 | 1073.95 | 1077.15 | 1081.43
303.15 K | 1003.8 | 1020.07 | 1040.24 | 1049.46 | 1056.2 | 1070.89 | 1074.16 | 1078.53
308.15 K | 1001.89 | 1017.57 | 1037.17 | 1046.28 | 1052.99 | 1067.82 | 1071.15 | 1075.63
313.15 K | 999.81 | 1014.95 | 1034.06 | 1043.06 | 1049.76 | 1064.72 | 1068.14 | 1072.73
318.15 K | 997.57 | 1012.24 | 1030.89 | 1039.81 | 1046.48 | 1061.63 | 1065.09 | 1069.82

CC#N [acetonitrile] + CCCCn1cc[n+](C)c1.[Cl-]
[1], x2 = 0
Conditions | mass density [kg/m3]
293.15 K | 782.04
298.15 K | 776.64
303.15 K | 771.21
308.15 K | 765.75
313.15 K | 760.25
318.15 K | 754.73

CO [methanol]
[2]
Conditions | mass density [kg/m3]
293.15 K | 791.3
298.15 K | 786.58
303.15 K | 781.86
308.15 K | 777.11
313.15 K | 772.33
318.15 K | 767.52

CC#N [acetonitrile]
[2]
Conditions | mass density [kg/m3]
293.15 K | 782.04
298.15 K | 776.64
303.15 K | 771.21
308.15 K | 765.75
313.15 K | 760.25
318.15 K | 754.73

CCCCn1cc[n+](C)c1.[Cl-] [1-butyl-3-methylimidazolium chloride] + CO
mass density [kg/m3], [1]
Conditions | x1 = 0.0101 | x1 = 0.0506 | x1 = 0.1 | x1 = 0.1665 | x1 = 0.1951 | x1 = 0.2398 | x1 = 0.2991 | x1 = 0.3771 | x1 = 0.482
293.15 K | 805.87 | 852.64 | 894.1 | 935.48 | 949.82 | 968.61 | 989.02 | 1010.45 | 1031.45
298.15 K | 801.3 | 848.46 | 890.18 | 931.83 | 946.25 | 965.16 | 985.68 | 1007.23 | 1028.33
303.15 K | 796.71 | 844.24 | 886.26 | 928.17 | 942.69 | 961.71 | 982.33 | 1004.01 | 1025.22
308.15 K | 792.11 | 840.01 | 882.35 | 924.53 | 939.14 | 958.26 | 979.01 | 1000.8 | 1022.12
313.15 K | 787.49 | 835.76 | 878.44 | 920.9 | 935.6 | 954.83 | 975.69 | 997.6 | 1019.03
318.15 K | 782.83 | 831.56 | 874.52 | 917.27 | 932.06 | 951.4 | 972.38 | 994.41 | 1015.96

CCCCn1cc[n+](C)c1.[Cl-] [1-butyl-3-methylimidazolium chloride] + CN(C)C=O
mass density [kg/m3], [1]
Conditions | x1 = 0.0332 | x1 = 0.0835 | x1 = 0.1303 | x1 = 0.1822 | x1 = 0.2289 | x1 = 0.3069 | x1 = 0.3879 | x1 = 0.4488
293.15 K | 961.92 | 978 | 990.54 | 1002.71 | 1012.04 | 1025.51 | 1037.1 | 1044.53
298.15 K | 957.33 | 973.63 | 986.33 | 998.67 | 1008.12 | 1021.78 | 1033.54 | 1041.06
303.15 K | 952.73 | 969.25 | 982.13 | 994.62 | 1004.21 | 1018.05 | 1029.98 | 1037.61
308.15 K | 948.12 | 964.87 | 977.91 | 990.58 | 1000.3 | 1014.34 | 1026.42 | 1034.18
313.15 K | 943.52 | 960.48 | 973.71 | 986.54 | 996.4 | 1010.63 | 1022.89 | 1030.77
318.15 K | 938.89 | 956.09 | 969.5 | 982.51 | 992.5 | 1006.94 | 1019.36 | 1027.36
